The results in this text go back to patent US20210355106A1, “NEW AMINO-PYRIMIDONYL-PIPERIDINYL DERIVATIVES, A PROCESS FOR THEIR PREPARATION AND PHARMACEUTICAL COMPOSITIONS CONTAINING THEM” (LES LABORATOIRES SERVIER, priority 2018, published 2021).

One experiment concerns the target T1, USP7 (Homo sapiens, UniProt Q93009, C315A).
T1 construct: 0.25 nM His-His-USP7 (aa208-560, |C315A|) was incubated with compound; His-His (N)
The experiment in a line: Inhibition of USP7 by Fluorescence Intensity (FLINT) readings, Ubiquitin-Rhodamine-110 substrate. It is filed as biochemical. The conditions noted are these: 0.25 nM His-His-USP7 (aa208-560), 60 minutes at 30° C. preincubation; Ki determined from IC50 according to Cer et al. The method in brief: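 His-tagged USP7 (aa208-560, C315A), 0.25 nM, preincubated with compound 60 min at 30 °C in 100 mM Bicine pH 8.0, 0.01% Triton X-100, 1 mM TCEP, 10% DMSO. Ubiquitin-Rhodamine-110 (50 nM or 4 μM) added; kinetic fluorescence (Ex 485/Em 535 nm) over 21 min; IC50 from 11-point curves, Ki derived from IC50.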

Experiment [1] concerns Z138 mantle cell lymphoma tumour cell lines. Nature of the experiment: In vitro cytotoxicity, MTT assay. Format: cell-based. The conditions noted are these: Z138 cells, exposed to the test compounds for 96 hours. As for the experimental part:
The cytotoxicity studies were evaluated by MTT [3-(4,5-dimethylthiaxol-2-yl)-2,5-diphenyltetrazolium bromide|assay and carried out on Z138 mantle cell lymphoma tumour cell lines. The cells are distributed onto microplates and exposed to the test compounds for 96 hours. MTT is then added for 4 hours and converted by NAD(P)H-dependent cellular oxidoreductase enzymes in forma/an, which has a purple color. The viable cell number is proportional to the production of formazan salts and cell viability can be quantified by the absorbance of the solution at 540 nm with a spectrophotometer (Carmichael et al., Cancer Res. 1987, 47, 936-942).
In general terms: Tetrazolium assays rely on reduction of a dye to a coloured formazan, in cell work by metabolically active cells.

T1 sequence (Q93009 208-560 C315A): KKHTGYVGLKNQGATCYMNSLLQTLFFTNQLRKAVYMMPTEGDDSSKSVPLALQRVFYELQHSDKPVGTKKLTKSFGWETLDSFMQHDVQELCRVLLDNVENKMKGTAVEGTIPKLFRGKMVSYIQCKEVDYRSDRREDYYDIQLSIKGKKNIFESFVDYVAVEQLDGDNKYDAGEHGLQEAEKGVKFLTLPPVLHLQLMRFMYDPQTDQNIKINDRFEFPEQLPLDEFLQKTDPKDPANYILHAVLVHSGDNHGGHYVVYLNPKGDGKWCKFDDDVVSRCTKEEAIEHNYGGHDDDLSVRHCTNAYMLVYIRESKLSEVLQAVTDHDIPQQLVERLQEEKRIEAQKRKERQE

A word on the Ki: it is a measure of affinity in units of concentration, obtained from inhibition or displacement. The low end stands for higher affinity, the high end for lower affinity. By IC50 is commonly meant the midpoint of a concentration-inhibition curve. Higher therefore signals a need for much substance. In turn, `Cc1nc(Br)sc1C(=O)N1CC[C@@H](C(=O)N2CC[C@](O)(Cn3cnc(Oc4ccc(F)cc4)c(N)c3=O)C(F)(F)C2)[C@H](c2ccccc2)C1` [Example 41, 5-amino-3-(((4S)-1-[(3R,4R)-1-(2-bromo-4-methyl-1,3-thiazole-5-carbonyl)-3-phenylpiperidine-4-carbonyl]-3,3-difluoro-4-hydroxypiperidin-4-yl}methyl)-6-(4-fluorophenoxy)pyrimidin-4(3H)-one] came in with a Ki at USP7 of 6.7 nM. The half-maximal inhibitory concentration (IC50) in experiment [1] (Homo sapiens, Z-138) amounted to 2.5 nM.
The compound `Cc1nc(-c2ccc(C(F)(F)F)nc2)sc1C(=O)N1CC[C@@H](C(=O)N2CCC(O)(Cn3cnc(Oc4ccc(F)cc4)c(N)c3=O)CC2)[C@H](c2ccccc2)C1` [Example 42, 5-amino-6-(4-fluorophenoxy)-3-({4-hydroxy-1-{(3R,4R)-1-{4-methyl-2-[6-(trifluromethyl)pyridin-3-yl]-1,3-thiazole-5carbonyl)-3-phenylpiperidine-4-carbonyl]piperidin-4-yl}methyl)pyrimidin-4(3H)-one] yielded a Ki at USP7 of 4.1 nM. Also, the IC50 in experiment [1] came out at 3.66 nM.
On to `Cc1nc(-c2ccc(N(C)C)nc2)sc1C(=O)N1CC[C@@H](C(=O)N2CCC(O)(Cn3cnc(Oc4ccc(F)cc4)c(N)c3=O)CC2)[C@H](c2ccccc2)C1` [Example 43, 5-amino-3-({1-[(3R,4R)-1-{2-[16-(dimethylamino)pyridin-3-yl-4-methyl-1,3-thiazole-5-carbonyl}-3-phenylpiperidine-4-carbonyl]-4-hydroxypiperidin-4-yl]}methyl)-6-(4-fluorophenoxy)pyrimidin-4(3H)-one], for which the Ki at USP7 turned out to be 6.42 nM. Further, in experiment [1] (Homo sapiens, Z-138), the IC50 is 1.2 nM.
In the case of `Cc1nc(-c2ccc(F)cc2)sc1C(=O)N1CC[C@@H](C(=O)N2CC[C@](O)(Cn3cnc(Oc4ccc(F)cc4)c(N)c3=O)C(F)(F)C2)[C@H](c2ccccc2)C1` [Example 44], the Ki at USP7 worked out at 18.1 nM. The compound also returned a half-inhibitory concentration (IC50) in experiment [1] (Homo sapiens, Z-138) of 7.4 nM.
The like results for `Cc1ccc(-c2nc(C)c(C(=O)N3CC[C@@H](C(=O)N4CC[C@](O)(Cn5cnc(Oc6ccc(F)cc6)c(N)c5=O)C(F)(F)C4)[C@H](c4ccccc4)C3)s2)cn1` [Example 45] were, in that order, 3.6 nM and 1.4 nM.
Regarding `Cc1ccc(-c2nc(C)c(C(=O)N3CC[C@@H](C(=O)N4CCC(O)(Cn5cnc(Oc6ccccc6)c(N)c5=O)CC4)[C@H](c4ccccc4)C3)s2)cn1` [Example 46, 5-amino-3-[(4-hydroxy-1-((3R,4R)-1-[4-methyl-2-(6-methylpyridin-3-yl)-1,3-thiazole-5-carbonyl]-3-phenylpiperidine-4-carbonyl)piperidin-4-yl)methyl)-6-phenoxypyrimidin-4(3H)-one], the Ki at USP7 was found to be 2.9 nM. Besides, in experiment [1] (Homo sapiens, Z-138), the IC50 came to 3.1 nM.
At USP7, `Cc1ccc(-c2nc(C)c(C(=O)N3CC[C@@H](C(=O)N4CCC(O)(Cn5cnc(Oc6ccc(F)cc6)c(N)c5=O)CC4)[C@H](c4ccccc4)C3)s2)cn1` [Example 47, 5-amino-6-(4-fluorophenoxy)-3-[(4-hydroxy-1-{(3R,4R)-1-[4-methyl-2-(6-methylpyridin-3-yl)-1,3-thiazole-5-carbonyl]-3-phenylpiperidine-4-carbonyl}piperidin-4-yl)methyl]pyrimidin-4(3H)-one] showed a Ki of 2.2 nM. The same compound yielded an IC50 in experiment [1] (Homo sapiens, Z-138) of 0.92 nM.
`Cc1nc(-c2ccc(F)cc2)sc1C(=O)N1CC[C@@H](C(=O)N2CCC(O)(Cn3cnc(Oc4ccc(F)cc4)c(N)c3=O)CC2)[C@H](c2ccccc2)C1` [Example 48, 5-amino-6-(4-fluorophenoxy)-3-[(1-((3R,4R)-1-[2-(4-fluorophenyl)-4-methyl-1,3-thiazole-5-carbonyl]-3-phenylpiperidine-4-carbonyl}-4-hydroxypiperidin-4-yl)methyl]pyrimidin-4(3H)-one]: on USP7, the affinity corresponds to a Ki of 5.2 nM. The same compound returned an IC50 in experiment [1] (Homo sapiens, Z-138) of 3 nM.
The like results for `Cc1ncc(C(=O)N2CC[C@@H](C(=O)N3CCC(O)(Cn4cnc(Oc5ccc(F)cc5)c(N)c4=O)CC3)[C@H](c3ccccc3)C2)s1` [Example 49] were, in that order, 24.9 nM and 31 nM.
Compound `Nc1c(Oc2ccc(F)cc2)ncn(CC2(O)CCN(C(=O)[C@@H]3CCN(Cc4cnc(Br)s4)C[C@H]3c3ccccc3)CC2)c1=O` [Example 50, 5-amino-3-[[1-[(3R,4R)-1-[(2-bromothiazol-5-yl)methyl]-3-phenyl-piperidine-4-carbonyl]-4-hydroxy-4-piperidyl]methyl]-6-(4-fluorophenoxy)pyrimidin-4-one] displayed an inhibition constant Ki at USP7 of 7.89 nM. This compound displayed an IC50 in experiment [1] (Homo sapiens, Z-138) of 6.17 nM.
The corresponding values for `Cc1ccc(-c2ncc(CN3CC[C@@H](C(=O)N4CCC(O)(Cn5cnc(Oc6ccc(F)cc6)c(N)c5=O)CC4)[C@H](c4ccccc4)C3)s2)cn1` [Example 51, 5-amino-6-(4-fluorophenoxy)-3-({4-hydroxy-1-[(3R,4R)-1-{{2-(6-methylpyridin-3 yl)-1,3-thiazol-5-yl]methyl}-3-phenylpiperidine-4-carbonyl]piperidin-4-yl}methyl)pyrimidin-4(3H)-one] are 2.6 nM and 1.4 nM.
The corresponding values for `Nc1c(Oc2ccc(F)cc2)ncn(CC2(O)CCN(C(=O)[C@@H]3CCN(Cc4ccccc4F)C[C@H]3c3ccccc3)CC2)c1=O` [Example 52, 5-amino-6-(4-fluorophenoxy)-3-[(1-((3R,4R)-1-[(2-fluorophenyl)methyl]-3-phenylpiperidine-4-carbonyl}-4-hydroxypiperidin-4-yl)methyl]pyrimidin-4(3H)-one] are 13 nM and 5.4 nM.
The corresponding values for `Cc1ccc(-c2ncc(CN3CC[C@@H](C(=O)N4CC[C@](O)(Cn5cnc(Oc6ccc(F)cc6)c(N)c5=O)C(F)(F)C4)[C@H](c4ccccc4)C3)s2)cn1` [Example 53] are 6.6 nM and 3.4 nM.
On to `Nc1c(Oc2ccc(F)cc2)ncn(C[C@@]2(O)CCN(C(=O)[C@@H]3CCN(Cc4ccccc4F)C[C@H]3c3ccccc3)CC2(F)F)c1=O` [Example 54, 5-amino-3-{[(4S)-3,3-difluoro-1-((3R,4R)-1-[(2-fluorophenyl)methyl]-3-phenylpiperidine-4-carbonyl}-4-hydroxypiperidin-4-yl}methyl)-6-(4-fluorophenoxy)pyrimidin-4(3H)-one], for which the Ki at USP7 is 13 nM. In addition, half-maximal inhibition in experiment [1] (Homo sapiens, Z-138) (IC50) required 9.1 nM.
Compound `CCOc1cccc(C(=O)N2CC[C@@H](C(=O)N3CCC(O)(Cn4cnc(Oc5ccc(F)cc5)c(N)c4=O)CC3)[C@H](c3ccccc3)C2)c1` [Example 55, 5-amino-3-({1-[(3R,4R)-1-(3-ethoxybenzoyl)-3-phenylpiperidine-4-carbonyl]-4-hydroxypiperidin-4-yl)methyl)-6-(4-fluorophenoxy)pyrimidin-4(3H)-one] yielded a Ki on USP7 of 15 nM. Also, the IC50 in experiment [1] (Homo sapiens, Z-138) stood at 12 nM.
The corresponding values for `CN1CCN(c2cccc(C(=O)N3CC[C@@H](C(=O)N4CCC(O)(Cn5cnc(Oc6ccc(F)cc6)c(N)c5=O)CC4)[C@H](c4ccccc4)C3)c2)CC1` [Example 56] are 16 nM and 42 nM.
The like results for `Nc1c(Oc2ccc(F)cc2)ncn(CC2(O)CCN(C(=O)[C@@H]3CCN(S(=O)(=O)c4ccc(Br)s4)C[C@H]3c3ccccc3)CC2)c1=O` [Example 59] were, in that order, 35.8 nM and 41.1 nM.
The like results for `Nc1c(Oc2ccc(F)cc2)ncn(CC2(O)CCN(C(=O)[C@@H]3CCN(C(=S)Nc4ccccc4)C[C@H]3c3ccccc3)CC2)c1=O` [Example 60] were, in that order, 75.9 nM and 128 nM.
